{"source": "patent US20240207213A1", "about": "“METHODS AND COMPOSITIONS FOR TREATING DISORDERS WITH ORAL SYSTEMICALLY BIOAVAILABLE BUTYRATE CONJUGATES” (THE UNIVERSITY OF CHICAGO, priority 2021, published 2024)", "key": {"[1]": {"test": "Biodistribution of butyrate after oral gavage (LC-MS/MS quantification in plasma and organs)", "assay_type": "in vivo, C57BL/6J mice", "conditions": "for butyrate level in the liver / butyrate level in the mesenteric LNs: 3 hr and 6 hr post oral administration; for butyrate level in the spleen: 3 hr post oral administration", "procedure": "The specific-pathogen-free (SPF) female C57BL/6J mice were orally administered with 50.4 mg NaBut, 80 mg SerBut, 85.6 mg ThrBut (all containing equivalent 40 mg butyrate), or PBS. At 0.5 hr or 3 hr post administration, blood was collected by cheek bleeding. At 3 hr or 6 hr post administration, the mice were anesthetized under isoflurane and transcardially perfused with at least 30 ml phosphate-buffered saline (PBS) containing 1 mM EDTA. Organs including liver, mesenteric lymph nodes (mLNs), brain, spinal cord, and spleen were collected and frozen in dry ice immediately, and then transfer to −80° C. until further processing.\n1:1 v/v acetonitrile (ACN) to water was used to extract butyrate from the plasma or organs. Plasma was mixed 1:1 with ACN/water solution, and then centrifuged to remove the denatured proteins. Organs were weighed and transferred to Lysing Matrix D tubes, and added with ACN/water 1:1 v/v solution followed by sample lysing using FastPrep-24 5G homogenizer (MP Biomedicals). The samples were then centrifuged, and the supernatant were collected for the measuring of butyrate.\nSamples were prepared and derivatized as describe in the literature (5, 6). 3-nitrophenylhydrazine (NPH) stock solution was prepared at 0.02 M in water:acetonitrile 1:1 v/v. EDC stock solution (with 1% pyridine added) was prepared at 0.25 M in water:acetonitrile 1:1 v/v. 4-methylvaleric acid was added as internal standard. Samples were mixed with NPH stock and EDC stock at 1:1:1 ratio by volume. The mixture was heated by heating block at 60° C. for 30 min. Samples were then filtered through […] and transferred into HPLC vials and stored at 4° C. before analysis.\nThe Agilent 6460 Triple Quad MS-MS was used to detect the derivatized butyrate.\nBoth derivatized butyrate-NPH and 4-methylvaleric-NPH were detected in negative mode. Column: ThermoScientific C18 4.6×50 mm, […], at room temperature. Mobile phase A: water with 0.1% v/v formic acid. Mobile phase B: acetonitrile with 0.1% v/v formic acid. Injection volume: 5.0 μL. Flow rate: 0.5 mL/min. Gradient of solvent: 15% mobile phase B at 0.0 min; 100% mobile phase B at 3.5 min; 100% mobile phase B at 6.0 min; 15% mobile phase B at 6.5 min. The MS conditions were optimized on pure butyrate-NPH or 4-methylvaleric-NPH at 1 mM. The fragment voltage was 135 V and collision energy was set to 18 V. Multiple reaction monitoring (MRM) of 222→137 was assigned to butyrate, and MRM of 250→137 was assigned to 4-methylvaleric acid as internal standard. The ratio between MRM of butyrate and 4-methylvaleric acid was used to quantify the concentration of butyrate. The final butyrate content is each organ is normalized by the organ weight."}, "[2]": {"test": "Water solubility (statement)", "assay_type": "physicochemical"}, "[3]": {"system": "experimental autoimmune encephalomyelitis (EAE)", "assay_type": "in vivo, C57BL/6 mice", "conditions": "for Th17 cells (RORγt+% of CD4+ T cells) in the spinal cord: day 20, compared to the PBS group", "description": "C57BL/6 female mice (8 weeks old) were purchased from Charles River Laboratories and housed in the animal facility at the University of Chicago for 2 weeks before immunization. All experiments were approved by the Institutional Animal Care and Use Committee of the University of Chicago\nFemale C57BL/6 mice at the age of week 10 were subcutaneously immunized at the dorsal flanks with an emulsion of MOG35-55 in complete Freund's adjuvant (MOG35-55/CFA Emulsion, Hooke Laboratories) on day 0, followed by i.p. administration of pertussis toxin in PBS on both day 0 and day 1. The mice were treated with PBS or serine butyrate (0.6 mg/g per dose) twice daily from day 2 to day 19. Another group of mice were treated with PBS once (in the morning) and serine butyrate (0.6 mg/g) once (in the afternoon) daily. The development of EAE was monitored and clinical scores were measured daily from day 7 to day 20. The clinical scores were determined based on the Hooke Laboratories scoring criteria (found online at hookelabs.com/services/cro/eae/MouseEAEscoring.html). In brief, EAE clinical scores ranged from a score of 0, corresponding to no obvious changes in motor function compared to non-immunized mice, to a score of 4, corresponding to limp tail and minimal or no movement of hind and/or fore limbs. On day 20, mice from the twice daily PBS or serine butyrate gavage groups were sacrificed. Their blood was collected through cardiac puncture, and spleen, spinal cord, mesenteric lymph nodes (LNs), central nervous system(CNS)-draining LNs (dLNs, including cervical LNs and iliac LNs) were harvested for the immunostaining followed by the flow cytometry analysis. The major cytokines from the plasma and spinal cord after homogenization were analyzed by the LegendPlex (BioLegend)."}, "[4]": {"conditions": "0.5 hr and 3 hr after oral administration (both time points)"}, "[5]": {"conditions": "oral, compared to mice treated with NaBut and ThrBut (PBS and sodium butyrate)"}, "[6]": {"conditions": "day 20, flow cytometry, twice daily vs PBS"}, "[7]": {"conditions": "day 20, flow cytometry, twice daily vs PBS, listed as Serine butyrate"}, "[8]": {"conditions": "day 20, flow cytometry, twice daily vs PBS, listed as serine butyrate"}}, "note": "Entries after “also recorded” stand apart in the source; their conditions may differ. Read-outs that look alike come from different tables or passages of the source.", "data": [{"compound": "CCCC(=O)OC(C)[C@H](N)C(=O)O", "note": "(stereo in doubt) [ThrBut, O-butyryl L-threonine]", "values": [{"measurement": "butyrate level in the plasma", "setting": "[1]; [4]", "value": "did not show high level of butyrate"}, {"measurement": "butyrate level in the liver", "setting": "[1]", "value": "high level of butyrate"}, {"measurement": "butyrate level in the mesenteric LNs", "setting": "[1]", "value": "high level of butyrate; also recorded: higher accumulation"}, {"measurement": "butyrate level in the spleen", "setting": "[1]", "value": "higher level of butyrate; also recorded: higher accumulation"}, {"measurement": "water solubility", "setting": "[2]", "value": "water soluble"}]}, {"compound": "CCCC(=O)Oc1ccc(C[C@H](N)C(=O)O)cc1", "note": "[TyrBut, O-butyryl L-tyrosine]", "values": [{"measurement": "water solubility", "setting": "[2]", "value": "not highly soluble"}]}, {"compound": "CCCC(=O)[O-].[Na+]", "note": "[NaBut, sodium butyrate, reference compound]", "values": [{"measurement": "butyrate level in the plasma", "setting": "[1]; [4]", "value": "did not show high level of butyrate"}]}, {"compound": "CCCC(=O)OC[C@H](N)C(=O)O", "note": "[SerBut, O-butyryl L-serine]", "values": [{"measurement": "butyrate level in the plasma", "setting": "[1]; 0.5 hr after oral administration, equivalent 40 mg butyrate", "value": "dramatically increased"}, {"measurement": "butyrate level in the plasma", "setting": "[1]; 3 hr after oral administration, equivalent 40 mg butyrate", "value": "dropped significantly"}, {"measurement": "butyrate level in the liver", "setting": "[1]", "value": "high level of butyrate"}, {"measurement": "butyrate level in the mesenteric LNs", "setting": "[1]", "value": "high level of butyrate; also recorded: higher accumulation"}, {"measurement": "butyrate level in the spleen", "setting": "[1]", "value": "higher level of butyrate; also recorded: higher accumulation"}, {"measurement": "butyrate level in brain", "setting": "[1]; [5]", "value": "significantly enhanced; also recorded: significantly increased"}, {"measurement": "butyrate level in spinal cord", "setting": "[1]; [5]", "value": "significantly enhanced; also recorded: significantly increased"}, {"measurement": "severity of EAE disease development (clinical score)", "setting": "[3]; 0.6 mg/g per dose oral, twice daily day 2-19, vs PBS, listed as Serine butyrate", "value": "attenuates"}, {"measurement": "dose regimen comparison in EAE: twice daily vs single daily dose", "setting": "[3]; 0.6 mg/g twice daily vs once daily", "value": "performed better than a single dose"}, {"measurement": "body weight loss", "setting": "[3]; EAE mice treated orally", "value": "did not observe a significant body weight loss"}, {"measurement": "MHCII expression (gMFI) on dendritic cells and macrophages in the mesenteric LNs", "setting": "[3]; day 20, compared to PBS-treated mice", "value": "significantly lower"}, {"measurement": "Th17 cells (RORγt+% of CD4+ T cells) in the spinal cord", "setting": "[3]; listed as Serine butyrate", "value": "reduced"}, {"measurement": "Th17 cells (RORγt+% of CD4+ T cells) in the spinal cord", "setting": "[3]; listed as serine butyrate", "value": "less Th17 cells"}, {"measurement": "CD80+% and CD86+% of CD11c hi dendritic cells in the spinal cord", "setting": "[3]; [6]", "value": "significant reduction"}, {"measurement": "cell surface MHCII expression in CD11c hi dendritic cells and CD11b+CD11c- monocytes, spinal cord", "setting": "[3]; [6]", "value": "similarly marked reduction"}, {"measurement": "MHCII positive dendritic cells and macrophages in the mesenteric LNs", "setting": "[3]; [7]", "value": "suppresses"}, {"measurement": "immune cell infiltration into the spinal cord (CD11b+, CD11b+CD11c-, F4/80+CD11b+ cells)", "setting": "[3]; [7]", "value": "inhibits"}, {"measurement": "MHCII positive dendritic cells and macrophages in the mesenteric LNs", "setting": "[3]; [8]", "value": "significant reduction"}, {"measurement": "immune cell infiltration into the spinal cord (CD11b+, CD11b+CD11c-, F4/80+CD11b+ cells)", "setting": "[3]; [8]", "value": "significantly suppressed"}, {"measurement": "IFNγ in the spinal cord", "setting": "[3]; day 20, homogenate supernatant normalized by total protein", "value": "minimal IFNγ"}, {"measurement": "Foxp3+CD8+ Tregs in the mesenteric LNs", "setting": "[3]; day 20, twice daily vs PBS", "value": "significant induction"}, {"measurement": "regulatory T cells in the spleen (Foxp3+ or Foxp3+CD25+ of CD4+ T cells)", "setting": "[3]; day 20, twice daily vs PBS", "value": "significantly increased"}, {"measurement": "EAE clinical score of the majority of mice", "setting": "[3]; twice daily 0.6 mg/g, score scale 0-4", "value": "below 1.0"}, {"measurement": "water solubility", "setting": "[2]", "value": "water soluble"}]}]}
